In PubChem BioAssay AID248 (DTP/NCI, 2004):
“And” between values parts separate entries of the source, which are not always exact repeats. Equal values may be shown once. Toxic doses and inconclusive results are not listed. No stated cut-off is given here; in the data, active means T/C of 150% or more; inactive means T/C below 125%.

Tested on: L1210 leukemia ip in BDF1 mice, survival T/C
Experiment: NCI In Vivo Anticancer Drug Screen. Data for tumor model L1210 Leukemia (intraperitoneal) in B6D2F1 (BDF1) mice
Details: endpoint: mean survival time, higher = longer survival
Method in brief: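 In this screen, tumor-bearing mice given compound are compared to those given vehicle, and their survival values are reported as a treated-to-control quotient.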

[1] = dose: 100.0 mg/kg/injection, schedule: Q01DX001 (ip), vehicle: Klucel (hydroxypropylcellulose) (HPC)
[2] = dose: 200.0 mg/kg/injection, schedule: Q01DX001 (ip), vehicle: Klucel (hydroxypropylcellulose) (HPC)
[3] = dose: 400.0 mg/kg/injection, schedule: Q01DX001 (ip), vehicle: Klucel (hydroxypropylcellulose) (HPC)
[4] = dose: 100.0 mg/kg/injection, schedule: Q04DX002 (ip), vehicle: Klucel (hydroxypropylcellulose) (HPC)
[5] = dose: 200.0 mg/kg/injection, schedule: Q04DX002 (ip), vehicle: Klucel (hydroxypropylcellulose) (HPC)
[6] = dose: 400.0 mg/kg/injection, schedule: Q04DX002 (ip), vehicle: Klucel (hydroxypropylcellulose) (HPC)
[7] = dose: 100.0 mg/kg/injection, schedule: Q01DX009 (ip), vehicle: Klucel (hydroxypropylcellulose) (HPC)
[8] = dose: 200.0 mg/kg/injection, schedule: Q01DX009 (ip), vehicle: Klucel (hydroxypropylcellulose) (HPC)
[9] = dose: 400.0 mg/kg/injection, schedule: Q01DX009 (ip), vehicle: Klucel (hydroxypropylcellulose) (HPC)
[10] = dose: 100.0 mg/kg/injection, schedule: Q04DX003 (ip), vehicle: saline with Tween-80
[11] = dose: 200.0 mg/kg/injection, schedule: Q04DX003 (ip), vehicle: saline with Tween-80
[12] = dose: 400.0 mg/kg/injection, schedule: Q04DX003 (ip), vehicle: saline with Tween-80
[13] = dose: 50.0 mg/kg/injection, schedule: Q04DX002 (ip), vehicle: Klucel (hydroxypropylcellulose) (HPC)

Measured: T/C

C#CCCN1CCC2(CC1)C(=O)NCN2c1ccccc1
inactive: [1] 91 % of control | [2] 94 % of control | [3] 91 % of control

N#CC(C#N)=CN1CCOCC1
inactive: dose: 100.0 mg/kg/injection, schedule: Q04DX002 (ip), vehicle: saline with Tween-80 87 % of control | dose: 200.0 mg/kg/injection, schedule: Q04DX002 (ip), vehicle: saline with Tween-80 87 % of control

COc1cc([N+](=O)[O-])c2nc(C)ccc2c1[N+](=O)[O-]
inactive: dose: 50.0 mg/kg/injection, schedule: Q01DX001 (ip), vehicle: carboxymethylcellulose (CMC) 100 % of control | dose: 100.0 mg/kg/injection, schedule: Q01DX001 (ip), vehicle: carboxymethylcellulose (CMC) 100 % of control | dose: 200.0 mg/kg/injection, schedule: Q01DX001 (ip), vehicle: carboxymethylcellulose (CMC) 100 % of control | dose: 400.0 mg/kg/injection, schedule: Q01DX001 (ip), vehicle: carboxymethylcellulose (CMC) 100 % of control

O=C(COc1ccc(Cl)cc1)OCCBr
inactive: [4] 121 % of control | [5] 105 % of control | [6] 102 % of control

NC(N)=NN=C(C1CC1)C1CC1
inactive: dose: 15.0 mg/kg/injection, schedule: Q01DX Z (ip), vehicle: carboxymethylcellulose (CMC) 103 % of control | dose: 30.0 mg/kg/injection, schedule: Q01DX Z (ip), vehicle: carboxymethylcellulose (CMC) 89 % of control | dose: 60.0 mg/kg/injection, schedule: Q01DX Z (ip), vehicle: carboxymethylcellulose (CMC) 95 % of control | dose: 120.0 mg/kg/injection, schedule: Q01DX Z (ip), vehicle: carboxymethylcellulose (CMC) 92 % of control and 96 % of control | dose: 120.0 mg/kg/injection, schedule: Q01DX Z (oral), vehicle: carboxymethylcellulose (CMC) 105 % of control | dose: 240.0 mg/kg/injection, schedule: Q01DX Z (ip), vehicle: carboxymethylcellulose (CMC) 92 % of control and 104 % of control | dose: 240.0 mg/kg/injection, schedule: Q01DX Z (oral), vehicle: carboxymethylcellulose (CMC) 105 % of control | dose: 480.0 mg/kg/injection, schedule: Q01DX Z (ip), vehicle: carboxymethylcellulose (CMC) 104 % of control | dose: 480.0 mg/kg/injection, schedule: Q01DX Z (oral), vehicle: carboxymethylcellulose (CMC) 103 % of control | dose: 960.0 mg/kg/injection, schedule: Q01DX Z (oral), vehicle: carboxymethylcellulose (CMC) 100 % of control

O=[N+]([O-])c1cccc(C=Nc2cccc3ccccc23)c1
inactive: [7] 96 % of control | [8] 98 % of control | [9] 88 % of control

Cc1ccc([N+](=O)[O-])cc1NC(=O)Oc1ccc(Cl)cc1Cl
inactive: [10] 104 % of control | [11] 100 % of control

O=S(=O)(Nc1ccccc1)c1ccccc1CC(O)(c1ccccc1)c1ccccc1
inactive: dose: 100.0 mg/kg/injection, schedule: Q01DX001 (ip), vehicle: steriod suspending solution 95 % of control | dose: 200.0 mg/kg/injection, schedule: Q01DX001 (ip), vehicle: steriod suspending solution 93 % of control | dose: 400.0 mg/kg/injection, schedule: Q01DX001 (ip), vehicle: steriod suspending solution 87 % of control

CCCCOP(=O)(OCCCC)OC(C#N)CCC (stereo not drawn)
inactive: [4] 107 % of control | [5] 98 % of control

CCOC(=O)C(CCC(=O)OC)C1=NC(C)(C)CC(C)O1 (stereo not drawn)
inactive: [1] 106 % of control | [2] 110 % of control | [3] 97 % of control

CCOC(=O)C(N)Cc1ccc(OC)c(N(CCCl)CCCl)c1 (stereo not drawn)
active: dose: 1.1 mg/kg/injection, schedule: Q01DX009 (ip), vehicle: carboxymethylcellulose (CMC) 154 % of control | dose: 1.5 mg/kg/injection, schedule: Q01DX009 (ip), vehicle: carboxymethylcellulose (CMC) 155 % of control | dose: 1.7 mg/kg/injection, schedule: Q01DX009 (ip), vehicle: carboxymethylcellulose (CMC) 160 % of control | dose: 2.6 mg/kg/injection, schedule: Q01DX009 (ip), vehicle: carboxymethylcellulose (CMC) 160 % of control | dose: 9.0 mg/kg/injection, schedule: Q01DX001 (ip), vehicle: carboxymethylcellulose (CMC) 164 % of control
inactive: dose: 0.21 mg/kg/injection, schedule: Q01DX009 (ip), vehicle: carboxymethylcellulose (CMC) 112 % of control | dose: 0.32 mg/kg/injection, schedule: Q01DX009 (ip), vehicle: carboxymethylcellulose (CMC) 112 % of control | dose: 0.48 mg/kg/injection, schedule: Q01DX009 (ip), vehicle: carboxymethylcellulose (CMC) 122 % of control | dose: 0.75 mg/kg/injection, schedule: Q01DX009 (ip), vehicle: carboxymethylcellulose (CMC) 112 % of control | dose: 1.5 mg/kg/injection, schedule: Q01DX001 (ip), vehicle: carboxymethylcellulose (CMC) 115 % of control | dose: 2.6 mg/kg/injection, schedule: Q01DX001 (ip), vehicle: carboxymethylcellulose (CMC) 119 % of control | dose: 3.0 mg/kg/injection, schedule: Q01DX001 (ip), vehicle: carboxymethylcellulose (CMC) 117 % of control | dose: 3.0 mg/kg/injection, schedule: Q01DX009 (ip), vehicle: carboxymethylcellulose (CMC) 121 % of control | dose: 4.0 mg/kg/injection, schedule: Q01DX009 (ip), vehicle: carboxymethylcellulose (CMC) 120 % of control

Brc1ccc(N2N=NC3CN(c4ccccc4)CC32)cc1 (stereo not drawn)
inactive: [10] 88 % of control | [11] 91 % of control | [12] 93 % of control

CC(O)(/C=C\c1ccccc1)c1ccccc1 (stereo not drawn)
inactive: dose: 100.0 mg/kg/injection, schedule: Q01DX009 (ip), vehicle: saline with Tween-80 104 % of control | [10] 103 % of control | dose: 200.0 mg/kg/injection, schedule: Q01DX009 (ip), vehicle: saline with Tween-80 102 % of control | [11] 101 % of control | dose: 400.0 mg/kg/injection, schedule: Q01DX009 (ip), vehicle: saline with Tween-80 93 % of control | [12] 108 % of control

Cc1cccc2c1C1c3ccccc3C(=O)CC1CC2=O (stereo not drawn)
inactive: dose: 100.0 mg/kg/injection, schedule: Q04DX003 (ip), vehicle: Klucel (hydroxypropylcellulose) (HPC) 98 % of control | dose: 200.0 mg/kg/injection, schedule: Q04DX003 (ip), vehicle: Klucel (hydroxypropylcellulose) (HPC) 97 % of control | dose: 400.0 mg/kg/injection, schedule: Q04DX003 (ip), vehicle: Klucel (hydroxypropylcellulose) (HPC) 93 % of control

CC1CNC2C(C)C3C(CC4C5CCC6CC(N=Cc7ccccc7)C(O)CC6(C)C5CCC43C)OC2(O)C1 (stereo not drawn)
inactive: [1] 87 % of control | [3] 91 % of control

CC(=O)/C(=C/c1ccccc1)c1ccccc1
inactive: dose: 75.0 mg/kg/injection, schedule: Q01DX009 (ip), vehicle: Klucel (hydroxypropylcellulose) (HPC) 95 % of control | dose: 75.0 mg/kg/injection, schedule: Q04DX003 (ip), vehicle: Klucel (hydroxypropylcellulose) (HPC) 104 % of control | dose: 150.0 mg/kg/injection, schedule: Q01DX009 (ip), vehicle: Klucel (hydroxypropylcellulose) (HPC) 106 % of control | dose: 150.0 mg/kg/injection, schedule: Q04DX003 (ip), vehicle: Klucel (hydroxypropylcellulose) (HPC) 100 % of control | dose: 300.0 mg/kg/injection, schedule: Q01DX009 (ip), vehicle: Klucel (hydroxypropylcellulose) (HPC) 102 % of control | dose: 300.0 mg/kg/injection, schedule: Q04DX003 (ip), vehicle: Klucel (hydroxypropylcellulose) (HPC) 104 % of control

CCc1ccccc1NC(=S)Nc1ccccc1
inactive: [4] 105 % of control | [5] 105 % of control | [6] 105 % of control

C/C(=N/NC(N)=S)c1ccncc1
inactive: dose: 2.5 mg/kg/injection, schedule: Q01DX009 (ip), vehicle: Klucel (hydroxypropylcellulose) (HPC) 106 % of control | dose: 5.0 mg/kg/injection, schedule: Q01DX009 (ip), vehicle: Klucel (hydroxypropylcellulose) (HPC) 103 % of control | dose: 10.0 mg/kg/injection, schedule: Q01DX009 (ip), vehicle: Klucel (hydroxypropylcellulose) (HPC) 94 % of control

CCc1ccc(NC(=O)CCC(=O)O)cc1
inactive: [7] 102 % of control | [8] 93 % of control | [9] 90 % of control

CC(=O)OC1C(C=O)OC(C)(C)OC1C1COC(=O)O1 (stereo not drawn)
inactive: dose: 25.0 mg/kg/injection, schedule: Q04DX002 (ip), vehicle: Klucel (hydroxypropylcellulose) (HPC) 104 % of control | [13] 93 % of control | [4] 100 % of control

CC(C)=NOS(=O)(=O)c1c(C)cc(C)cc1C
inactive: [13] 98 % of control | [7] 87 % of control | [4] 98 % of control and 89 % of control | [8] 97 % of control | [5] 105 % of control | [9] 97 % of control | [6] 92 % of control
